Results: patent publication US20070010671A1, “Novel quinazoline derivatives and methods of treatment related to the use thereof” (priority 2003, published 2007)

Each compound was assayed against MCH receptor (Homo sapiens, UniProt Q99705) (assay: High throughput functional screening FLIPR/FDSS6000: inhibition of MCH-evoked intracellular Ca2+ changes). Conditions: class by percent of control at 10^-7 M or IC50.
Assay type: cell-based
Method in brief: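 Cells expressing constitutively active MCH receptor, loaded with 4 μM Fluo4-AM for 1 h at 37 °C, were pretreated 3 min with compound, then challenged with MCH (50 nM for antagonist testing). MCH-evoked [Ca2+]i transients followed by FLIPR or FDSS (ex 488/em 530 nm) over 290 s.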

Row | SMILES | class
1 | CN(C)c1nc(N[C@H]2CC[C@@H](CNC(=O)NCc3ccc(F)cc3)CC2)nc2ccccc12 [compound 553, N-[(cis-4-{[4-(dimethylamino)quinazolin-2-yl]amino}cyclohexyl)methyl]-N′-(4-fluorobenzyl)urea] | 2 (Class 2: The value of percent of control at 10^−7 M was from 40% to 60% or the value of IC50 was from 50 nM to 200 nM.)
2 | CN(C)c1nc(N[C@H]2CC[C@@H](CNC(=S)Nc3ccccc3OC(F)(F)F)CC2)nc2ccccc12 [compound 631] | 2 (Class 2: The value of percent of control at 10^−7 M was from 40% to 60% or the value of IC50 was from 50 nM to 200 nM.)
3 | Cc1cc(Cl)ccc1NC(=S)N[C@H]1CC[C@@H](Nc2nc(N(C)C)c3ccccc3n2)CC1 [compound 269] | 1 (Class 1: The value of percent of control at 10^−7 M was less than 40% or the value of IC50 was less than 50 nM.)
4 | Cc1ccc(NC(=O)NC[C@H]2CC[C@@H](Nc3nc(N(C)C)c4ccccc4n3)CC2)cc1Cl [compound 464] | 3 (Class 3: The value of percent of control at 10^−7 M was more than 60% or the value of IC50 was more than 200 nM.)
5 | CN(C)c1nc(N[C@H]2CC[C@@H](CNC(=O)NC3C[C@H]3c3ccccc3)CC2)nc2ccccc12 (stereo partly shown) [compound 451] | 3 (Class 3: The value of percent of control at 10^−7 M was more than 60% or the value of IC50 was more than 200 nM.)
6 | COc1ccc(NC(=S)NC[C@H]2CC[C@@H](Nc3nc(N(C)C)c4ccccc4n3)CC2)cc1 [compound 607] | 3 (Class 3: The value of percent of control at 10^−7 M was more than 60% or the value of IC50 was more than 200 nM.)
7 | CN(C)c1nc(N[C@H]2CC[C@@H](CNC(=O)NCc3ccccc3Cl)CC2)nc2ccccc12 [compound 490, N-(2-chlorobenzyl)-N′-[(cis-4-{[4-(dimethylamino)quinazolin-2-yl]amino}cyclohexyl)methyl]urea] | 1 (Class 1: The value of percent of control at 10^−7 M was less than 40% or the value of IC50 was less than 50 nM.)
8 | CN(C)c1nc(N[C@H]2CC[C@@H](CNC(=S)Nc3ccc(Cl)cc3)CC2)nc2ccccc12 [compound 588] | 3 (Class 3: The value of percent of control at 10^−7 M was more than 60% or the value of IC50 was more than 200 nM.)
9 | CN(C)c1nc(N[C@H]2CC[C@@H](NC(=S)Nc3cccc(I)c3)CC2)nc2ccccc12 [compound 227] | 2 (Class 2: The value of percent of control at 10^−7 M was from 40% to 60% or the value of IC50 was from 50 nM to 200 nM.)
10 | Cc1cc(Cl)ccc1NC(=S)NC[C@H]1CC[C@@H](Nc2nc(N(C)C)c3ccccc3n2)CC1 [compound 694] | 3 (Class 3: The value of percent of control at 10^−7 M was more than 60% or the value of IC50 was more than 200 nM.)
11 | Cc1cc(Br)ccc1NC(=O)N[C@H]1CC[C@@H](Nc2nc(N(C)C)c3ccccc3n2)CC1 [compound 334] | 1 (Class 1: The value of percent of control at 10^−7 M was less than 40% or the value of IC50 was less than 50 nM.)
12 | CN(C)c1nc(N[C@H]2CC[C@@H](NC(=S)Nc3c(F)cc(F)cc3F)CC2)nc2ccccc12 [compound 247] | 3 (Class 3: The value of percent of control at 10^−7 M was more than 60% or the value of IC50 was more than 200 nM.)
13 | Cc1ccc(CNC(=S)NC[C@H]2CC[C@@H](Nc3nc(N(C)C)c4ccccc4n3)CC2)cc1 [compound 704] | 3 (Class 3: The value of percent of control at 10^−7 M was more than 60% or the value of IC50 was more than 200 nM.)
14 | CN(C)c1nc(N[C@H]2CC[C@@H](CNC(=S)Nc3ccc([N+](=O)[O-])cc3Cl)CC2)nc2ccccc12 [compound 638] | 3 (Class 3: The value of percent of control at 10^−7 M was more than 60% or the value of IC50 was more than 200 nM.)
15 | Cc1cc(NC(=O)NC[C@H]2CC[C@@H](Nc3nc(N(C)C)c4ccccc4n3)CC2)c([N+](=O)[O-])cc1C [compound 538] | 2 (Class 2: The value of percent of control at 10^−7 M was from 40% to 60% or the value of IC50 was from 50 nM to 200 nM.)
16 | CN(C)c1nc(N[C@H]2CC[C@@H](NC(=O)Nc3cc(Cl)nc(Cl)c3)CC2)nc2ccccc12 [compound 352] | 3 (Class 3: The value of percent of control at 10^−7 M was more than 60% or the value of IC50 was more than 200 nM.)
17 | CN(C)c1nc(N[C@H]2CC[C@@H](CNC(=S)NC3C[C@@H]4CC[C@H]3C4)CC2)nc2ccccc12 (stereo partly drawn) [compound 663, N-[(1S,4R)-bicyclo[2.2.1]hept-2-yl]-N′-[(cis-4-{[4-(dimethylamino)quinazolin-2-yl]amino}cyclohexyl)methyl]thiourea] | 2 (Class 2: The value of percent of control at 10^−7 M was from 40% to 60% or the value of IC50 was from 50 nM to 200 nM.)
18 | CN(C)c1nc(N[C@H]2CC[C@@H](CNC(=S)Nc3c(F)cc(Br)cc3Br)CC2)nc2ccccc12 [compound 781, N-(2,4-dibromo-6-fluorophenyl)-N′-[(cis-4-{[4-(dimethylamino)quinazolin-2-yl]amino}cyclohexyl)methyl]thiourea] | 2 (Class 2: The value of percent of control at 10^−7 M was from 40% to 60% or the value of IC50 was from 50 nM to 200 nM.)
19 | CN(C)c1nc(N[C@H]2CC[C@@H](NC(=S)NCc3ccc(F)cc3)CC2)nc2ccccc12 [compound 274, N-(cis-4-{[4-(dimethylamino)quinazolin-2-yl]amino}cyclohexyl)-N′-(4-fluorobenzyl)thiourea] | 2 (Class 2: The value of percent of control at 10^−7 M was from 40% to 60% or the value of IC50 was from 50 nM to 200 nM.)
20 | Cc1ccc(Cl)cc1NC(=S)N[C@H]1CC[C@@H](Nc2nc(N(C)C)c3ccccc3n2)CC1 [compound 238] | 2 (Class 2: The value of percent of control at 10^−7 M was from 40% to 60% or the value of IC50 was from 50 nM to 200 nM.)

Same assay, conditions: class by percent of control at 10^-7 M or by IC50; read-out: class

Row | IC50 [nM] | SMILES
21 | < 50 | CCOC(=O)C(CC(C)C)NC(=O)NC1CCC(Nc2nc(N(C)C)c3ccccc3n2)CC1 (stereo not drawn) [compound 34, ethyl N-{[(cis-4-{[4-(dimethylamino)quinazolin-2-yl]amino}cyclohexyl)amino]carbonyl}lucinate]
22 | 50 to 200 | CN(C)c1nc(N[C@H]2CC[C@@H](NC(=O)OCc3ccccc3Cl)CC2)nc2ccccc12 [compound 863]
23 | > 200 | CN(C)c1nc(N[C@H]2CC[C@@H](NC(=O)Nc3cc(Cl)c(Cl)cc3Cl)CC2)nc2ccccc12 [compound 74]
24 | > 200 | COc1cc(COC(=O)NC[C@H]2CC[C@@H](Nc3nc(N(C)C)c4ccccc4n3)CC2)c([N+](=O)[O-])cc1OC [compound 868]
25 | > 200 | CN(C)c1nc(N[C@H]2CC[C@@H](NC(=O)Nc3ccc4ccccc4c3)CC2)nc2ccccc12 [compound 112]
26 | < 50 | Cc1cccc(NC(=O)N[C@H]2CC[C@@H](Nc3nc(N(C)C)c4ccccc4n3)CC2)c1C [compound 27, N-(cis-4-{[4-(dimethylamino)quinazolin-2-yl]amino}cyclohexyl)-N′-(2,3-dimethylphenyl)urea]
27 | > 200 | CN(C)c1nc(N[C@H]2CC[C@@H](NC(=S)Nc3cc(F)ccc3F)CC2)nc2ccccc12 [compound 167]
28 | 50 to 200 | COc1ccc(CNC(=O)N[C@H]2CC[C@@H](Nc3nc(N(C)C)c4ccccc4n3)CC2)cc1 [compound 48, N-(cis-4-{[4-(dimethylamino)quinazolin-2-yl]amino}cyclohexyl)-N′-(4-methoxybenzyl)urea]

Row | SMILES | IC50 [nM]
29 | COc1ccc(NC(=O)N[C@H]2CC[C@@H](Nc3nc(N(C)C)c4ccccc4n3)CC2)cc1OC [compound 124, N-(3,4-dimethoxyphenyl)-N′-(cis-4-{[4-(dimethylamino)quinazolin-2-yl]amino}cyclohexyl)urea] | < 50

Same assay, conditions: class by percent of control at 10^−7 M or by IC50; read-out: class

Row | IC50 [nM] | SMILES
30 | 50 to 200 | CN(C)c1nc(N[C@H]2CC[C@@H](C(=O)NCc3ccc(Cl)nc3)CC2)nc2cc(F)c(F)cc12 [Example 996, cis-N-[(6-chloropyridin-3-yl)methyl]-4-{[4-(dimethylamino)-6,7-difluoroquinazolin-2-yl]amino}cyclohexanecarboxamide]
31 | < 50 | COc1cccc(C(O)C(=O)N[C@H]2CC[C@@H](Nc3nc(N(C)C)c4ccccc4n3)CC2)c1 (relative stereo) [Example 1113, N-(cis-4-{[4-(dimethylamino)quinazolin-2-yl]amino}cyclohexyl)-2-hydroxy-2-(3-methoxyphenyl)acetamide]
32 | < 50 | CN(C)c1nc(N[C@H]2CC[C@@H](NC(=O)c3ccccc3)CC2)nc2cc(F)c(F)cc12 [Example 1205, N-(cis-4-{[4-(dimethylamino)-6,7-difluoroquinazolin-2-yl]amino}cyclohexyl)benzamide]
33 | > 200 | CN(C)c1nc(N[C@H]2CC[C@@H](CNC(=O)c3ccc(C(F)(F)F)c(F)c3)C2)nc2ccccc12 [Example 1124, N-[((1R,3S)-3-{[4-(dimethylamino)quinazolin-2-yl]amino}-cyclopentyl)methyl]-3-fluoro-4-(trifluoromethyl)benzamide]
34 | > 200 | CN(C)c1nc(N[C@H]2CC[C@@H](CNC(=O)[C@H](O)c3ccccc3)CC2)nc2ccccc12 [Example 1102, (2R)-N-[(cis-4-{[4-(dimethylamino)quinazolin-2-yl]amino}cyclohexyl)methyl]-2-hydroxy-2-phenylacetamide]
35 | < 50 | CN(C)c1nc(N[C@H]2CC[C@@H](NC(=O)[C@@H](O)c3ccccc3Cl)CC2)nc2ccccc12 [Example 1114, (2S)-2-(2-chlorophenyl)-N-(cis-4-{[4-(dimethylamino)quinazolin-2-yl]amino}cyclohexyl)-2-hydroxyacetamide]
36 | < 50 | CN(C)c1nc(N[C@H]2CC[C@@H](C(=O)NCc3cc(Cl)cc(Cl)c3)CC2)nc2cc(F)c(F)cc12 [Example 1001, cis-N-(3,5-dichlorobenzyl)-4-{[4-(dimethylamino)-6,7-difluoroquinazolin-2-yl]amino}cyclohexanecarboxamide]
37 | < 50 | Cc1ccc([C@H](C)NC(=O)[C@H]2CC[C@@H](Nc3nc(N(C)C)c4cc(F)c(F)cc4n3)CC2)cc1 [Example 1007, cis-4-{[4-(dimethylamino)-6,7-difluoroquinazolin-2-yl]amino}-N-[(1S)-1-(4-methylphenyl)ethyl]cyclohexanecarboxamide]
